Measured values from patent US9532554B2, “Method for inducing hepatocellular variation, and production method for chimeric non-human animal having humanized liver” (PUBLIC UNIVERSITY CORPORATION YOKOHAMA CITY UNIVERSITY, priority 2011, dated 2017).

Biological target: T1, human CYP2D6 (Homo sapiens, UniProt P10635)
T1 construct: from tissue; host or cells: humanized liver of chimeric mice (transplanted human hepatic cells), in vivo
Test: Debrisoquine metabolism to 4-OHDB in chimeric mice
Format: in vivo
Settings: debrisoquine 2.0 mg/kg orally, chimera group vs sham-operated group
Method: Debrisoquine, which serves as a common phenotyping agent for human CYP2D6, is metabolized to 4-hydroxydebrisoquine (4-OHDB) in humans but is negligible in mice.
Debrisoquine was orally administered at a dose of 2.0 mg/kg. The data was obtained 8 hours after the oral administration and is indicated by the mean±SD.

T1 sequence (P10635 whole entry): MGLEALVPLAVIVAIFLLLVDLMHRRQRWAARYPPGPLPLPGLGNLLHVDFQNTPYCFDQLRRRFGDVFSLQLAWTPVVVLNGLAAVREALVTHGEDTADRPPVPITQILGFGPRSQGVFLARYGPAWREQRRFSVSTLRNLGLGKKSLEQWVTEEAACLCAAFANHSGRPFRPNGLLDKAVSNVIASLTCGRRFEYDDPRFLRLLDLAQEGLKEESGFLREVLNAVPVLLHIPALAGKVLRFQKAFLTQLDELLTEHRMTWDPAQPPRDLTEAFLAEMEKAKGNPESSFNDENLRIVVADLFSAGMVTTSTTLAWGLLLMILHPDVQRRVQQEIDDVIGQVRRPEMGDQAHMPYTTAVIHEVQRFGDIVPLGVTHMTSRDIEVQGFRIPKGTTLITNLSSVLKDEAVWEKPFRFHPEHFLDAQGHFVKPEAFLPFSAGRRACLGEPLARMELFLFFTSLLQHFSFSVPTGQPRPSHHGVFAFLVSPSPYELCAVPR

## N=C(N)N1CCc2ccccc2C1 [debrisoquine, Debrisoquine]
  plasma concentration of 4-OHDB following oral administration of debrisoquine: higher in the chimera group than in the sham-operated group
